Data on 17 compounds can be found in patent US20220073536A1 (Rigel Pharmaceuticals, Inc., priority 2003, published 2022).

Where a name gives a salt, the structure may show the parent alone. Read-outs that look alike come from different tables or passages of the source.

The assay has as its system cultured human mast cells (CHMC). The experiment in a line: CHMC low cell density IgE activation: tryptase assay. The conditions noted are these: IgE activation. Type of assay: cell-based. The procedure, abridged:
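CHMC were seeded at 1000–1500 cells/well in MT buffer and incubated 1 hr at 37 °C. They were then stimulated with anti-IgE for 30 min at 37 °C, with unstimulated wells as controls. Released tryptase in the supernatant was measured with a fluorogenic substrate after 30 min at room temperature.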

Setting [1] is: Homo sapiens, Mast cell, low cell density CHMC, tryptase, 3 pt, read-out: LD Tryptase, CHMC, IgE, 3 pt.
Where [2] appears, read: Homo sapiens, Mast cell, low cell density CHMC, tryptase release, 3 pt, read-out: LD Tryptase, CHMC, IgE, 3 pt.
Setting [3] is: Homo sapiens, Mast cell, low cell density CHMC, tryptase release, 8 pt, read-out: LD Tryptase, CHMC, IgE, 8 pt.
Where [4] appears, read: low cell density CHMC, tryptase, 3 pt, read-out: LD Tryptase, CHMC, IgE, 3 pt.
Setting [5] is: Homo sapiens, Mast cell, low cell density, 3 pt, read-out: LD Tryptase, CHMC, IgE, 3 pt.

As to `Cc1cc(C)cc(Nc2nc(Nc3cc(C)c(O)c(Cl)c3)ncc2F)c1` [Compound 554], the IC50 (Homo sapiens, Mast cell, low cell density, 8 pt, read-out: LD Tryptase, CHMC, IgE, 8 pt) is below 10 µM.

`COc1ccc(Nc2nc(Nc3ccc(OC)c(OC)c3OC)ncc2F)cc1Cl` [Compound 669, N4-(3-Chloro-4-methoxyphenyl)-5-fluoro-N2-(2,3,4-trimethoxyphenyl)-2,4-pyrimidinediamine]: the IC50 under setting [1] was above 10 µM.

In the case of `Cc1nn(C)c2cc(Nc3ncc(F)c(Nc4ccc(Cl)c(Cl)c4)n3)ccc12` [Compound 753, N4-(3,4-Dichlorophenyl)-N2-(1,3-dimethylindazol-6-yl)-5-fluoro-2,4-pyrimidinediamine], the IC50 was below 10 µM under setting [1] and below 10 µM (Homo sapiens, Mast cell, low cell density CHMC, tryptase, 8 pt, read-out: LD Tryptase, CHMC, IgE, 8 pt).

On to `COc1cc(Nc2ncc(F)c(Nc3cc(C)cc(C)c3)n2)cc(C(F)(F)F)c1` [Compound 329], for which, under setting [2], the IC50 was below 10 µM.

`COc1cc(Nc2ncc(F)c(Nc3ccc4c(c3)NC(=O)C(C)(C)S4(=O)=O)n2)cc(OC)c1` [Compound 267]: the IC50 under setting [3] is below 10 µM.

On to “(R,S)-N2- (3,5-Dimethylphenyl)-5-fluoro-N4-(tetrahydrofurano[2,3]-2H-benz[1,4]oxazin-6-yl)-2,4-pyrimidinediamine [Compound 252]”, for which, under “low cell density CHMC, tryptase release, 8 pt, read-out: LD Tryptase, CHMC, IgE, 8 pt”, the IC50 was below 10 µM.

For the compound “N4- (2,2-Dimethyl-3-oxo-4H-5-pyrid[1,4]oxazin-6-yl)-5-fluoro-N2- (3-methoxycarbonylppyrid-2yl)-2,4-pyrimidinediamine [Compound 1314]”, the IC50 under setting [4] was below 10 µM.

With `CN1CCN(c2ccc(Nc3ncc(F)c(NC4CCC4)n3)cc2CO)CC1` [Compound 1243, N4-Cyclobutyl-5-fluoro-N2-[3-hydroxymethyl-4-(4-methylpiperazino)phenyl]-2,4-pyrimidinediamine Bishydrogen chloride salt], the IC50 under setting [4] was below 10 µM.

On to `COc1cc(Nc2ncc(F)c(Nc3cc(C)cc(C)c3)n2)cc(OC)c1` [Compound 328], for which the IC50 under setting [3] was below 10 µM.

Turning to `Cc1nc2cc(Nc3ncc(F)c(Nc4ccc(Cl)c(Cl)c4)n3)ccc2n1C` [Compound 894], the IC50 under setting [5] is below 10 µM.

As to `Cc1cc(Nc2ncc(F)c(NC3(CO)CCCC3)n2)ccc1N1CCN(C)CC1` [Compound 1250], the IC50 under setting [1] is below 10 µM.

In the case of `COc1ccc(Nc2nc(Nc3cc4cnn(C)c4cc3C)ncc2F)cc1Cl` [Compound 756, N4-(3-Chloro-4-methoxyphenyl)-N2-(1,6-dimethylindazol-5-yl)-5-fluoro-2,4-pyrimidinediamine], the IC50 under setting [1] is below 10 µM.

As to `CNC(=O)COc1cccc(Nc2ncc(F)c(Nc3ccc4c(c3)NCC(C)(C)O4)n2)c1` [Compound 1000, N4-(3,4-Dihydro-2,2-dimethyl-4H-benz[1,4]oxazin-6-yl)-5-fluoro-N2-[3-(N-methylamino)carbonylmethyleneoxyphenyl]-2,4-pyrimidinediamine], the IC50 (low cell density, 8 pt, read-out: LD Tryptase, CHMC, IgE, 8 pt) was below 10 µM.

Turning to `CC1(C)Sc2ccc(Nc3nc(Nc4ccc5cn[nH]c5c4)ncc3F)cc2NC1=O` [Compound 295], the IC50 was below 10 µM under setting [2] and below 10 µM under setting [3].

Consider `CNC(=O)n1ccc2ccc(Nc3ncc(F)c(Nc4ccc5c(c4)NC(=O)C(C)(C)O5)n3)cc21` [Compound 347, N4-(2,2-Dimethyl-3-oxo-4H-benz[1,4]oxazin-6-yl)-N2-[1-(N-methylaminocarbony)lindol-6-yl)-5-fluoro-2,4-pyrimidinediamine], for which the IC50 under setting [4] is below 10 µM.

For `CC1(C)Oc2ccc(Nc3nc(Nc4ccc5c(cnn5CCCN5C(=O)CCCC5=O)c4)ncc3F)cc2NC1=O` [Compound 860, N4-(2,2-Dimethyl-3-oxo-4H-benz[1,4]oxazin-6-yl)-N2-[1-[3-(2,6-dioxopiperidino]propyl)indazol-5-yl]-5-fluoro-2,4-pyrimidinediamine], the IC50 is below 10 µM under setting [2] and below 10 µM under setting [3].

As for `COc1ccc(Nc2nc(Nc3ccc4c(cnn4CCCNC(=O)C(C)(C)C)c3)ncc2F)nc1Cl` [Compound 892], the IC50 under setting [5] is below 10 µM.
